Experimental data reported in patent publication US11319298B2 (Merck Sharp & Dohme Corp., priority 2016, dated 2022).

molecular target: T1, human M4 muscarinic acetylcholine receptor (Homo sapiens, UniProt P08173); test: human FLIPR-based M4 PAM assay, CHO-K1 cells stably transfected with human M4 receptor and chimeric G-protein Gαqi5; type: cell-based; details: inflection point (IP) of dose response curve; acetylcholine added at 20% of maximum response; CHO-K1 human M4/Gαqi5, FLIPR Tetra
T1 construct: expressed in transfected cells; host or cells: CHO-K1
T1 sequence (P08173 1-479): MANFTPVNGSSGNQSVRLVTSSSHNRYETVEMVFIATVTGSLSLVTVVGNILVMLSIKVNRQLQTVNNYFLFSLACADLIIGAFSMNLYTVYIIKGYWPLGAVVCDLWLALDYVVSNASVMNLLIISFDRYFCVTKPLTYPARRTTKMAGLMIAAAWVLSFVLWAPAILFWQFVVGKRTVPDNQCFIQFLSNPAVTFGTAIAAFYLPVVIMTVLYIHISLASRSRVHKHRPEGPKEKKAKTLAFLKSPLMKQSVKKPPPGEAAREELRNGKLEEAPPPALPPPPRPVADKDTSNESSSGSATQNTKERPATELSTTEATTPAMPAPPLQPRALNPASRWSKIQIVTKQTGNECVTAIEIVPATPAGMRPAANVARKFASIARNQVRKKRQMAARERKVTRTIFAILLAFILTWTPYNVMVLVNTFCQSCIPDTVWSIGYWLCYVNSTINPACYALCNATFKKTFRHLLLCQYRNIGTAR
Method in brief: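 CHO-K1 cells were loaded with calcium dye at 37 °C for ~1 h. Fluorescence (ex 470–495/em 515–575 nm) was read for 4 min after test compound at increasing concentrations, then 3.5 min after acetylcholine at an EC20; sometimes a third addition at EC70 followed. The value is the inflection point of a 4-parameter logistic fit.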

EC50 [nM] | Compound
893 | COc1ccc([C@H](C)NC(=O)c2cc(C)c(N3CCC(Oc4ccc(OC)nc4)CC3)nn2)cc1 [Example 182, N-[(1S)-1-(4-methoxyphenyl)ethyl]-6-{4-[(6-methoxypyridin-3-yl)oxy]piperidin-1-yl}-5-methylpyridazine-3-carboxamide]
915 | COc1ccc(OC2CCN(c3nnc(C(=O)NCc4ccc(F)cc4Cl)cc3C)CC2)cn1 [Example 183, N-(2-chloro-4-fluorobenzyl)-6-{4-[(6-methoxypyridin-3-yl)oxy]piperidin-1-yl}-5-methylpyridazine-3-carboxamide]
427 | COc1ccc(OC2CCN(c3nnc(C(=O)N[C@H]4CCc5cc(F)ccc5C4)cc3C)CC2)cn1 [Example 184A, (S)-N-(6-fluoro-1,2,3,4-tetrahydronaphthalen-2-yl)-6-{4-[(6-methoxypyridin-3-yl)oxy]piperidin-1-yl}-5-methylpyridazine-3-carboxamide]
1010 | COc1ccc(OC2CCN(c3nnc(C(=O)N[C@@H]4CCc5cc(F)ccc5C4)cc3C)CC2)cn1 [Example 184B, (R)-N-(6-fluoro-1,2,3,4-tetrahydronaphthalen-2-yl)-6-{4-[(6-methoxypyridin-3-yl)oxy]piperidin-1-yl}-5-methylpyridazine-3-carboxamide]
1040 | COc1ccc(OC2CCN(c3nnc(C(=O)NC4(C)CCCC4)cc3C)CC2)cn1 [Example 185, 6-{4-[(6-methoxypyridin-3-yl)oxy]piperidin-1-yl}-5-methyl-N-(1-methylcyclopentyl)pyridazine-3-carboxamide]
1250 | COc1ccc(OC2CCN(c3nnc(C(=O)NCc4ccc(OC)c(C(F)(F)F)c4)cc3C)CC2)cn1 [Example 186, 6-{4-[(6-methoxypyridin-3-yl)oxy]piperidin-1-yl}-N-[4-methoxy-3-(trifluoromethyl)benzyl]-5-methylpyridazine-3-carboxamide]
1330 | COc1ccc(OC2CCN(c3nnc(C(=O)N[C@@H]4CCCc5ccccc54)cc3C)CC2)cn1 [Example 187, 6-{4-[(6-methoxypyridin-3-yl)oxy]piperidin-1-yl}-5-methyl-N-[(1R)-1,2,3,4-tetrahydronaphthalen-1-yl]pyridazine-3-carboxamide]
1510 | COc1ccc([C@@H](C)NC(=O)c2cc(C)c(N3CCC(Oc4ccc(OC)nc4)CC3)nn2)cc1 [Example 188, N-[(1R)-1-(4-methoxyphenyl)ethyl]-6-{4-[(6-methoxypyridin-3-yl)oxy]piperidin-1-yl}-5-methylpyridazine-3-carboxamide]
1870 | CNC(=O)c1cc(C)c(N2CCC(Oc3ccc(OC)nc3)CC2)nc1C [Example 189, 6-{4-[(6-methoxypyridin-3-yl)oxy]piperidin-1-yl}-N,2,5-trimethylpyridine-3-carboxamide]
2000 | COc1ccc(OC2CCN(c3nnc(C(=O)Nc4ccc(CC(F)(F)F)cc4)cc3C)CC2)cn1 [Example 190, 6-{4-[(6-methoxypyridin-3-yl)oxy]piperidin-1-yl}-5-methyl-N-[4-(2,2,2-trifluoroethyl)phenyl]pyridazine-3-carboxamide]
2960 | COc1ccc(OC2CCN(c3nc(C)c(C(N)=O)cc3C)CC2)cn1 [Example 191, 6-{4-[(6-methoxypyridin-3-yl)oxy]piperidin-1-yl}-2,5-dimethypyridine-3-carboxamide]
22 | Cc1cc(C(=O)NCc2cnsc2)nnc1N1CCC(Oc2cccc(C#N)c2)CC1 [Example 192, 6-[4-(3-cyanophenoxy)piperidin-1-yl]-N-(isothiazol-4-ylmethyl)-5-methypyridazine-3-carboxamide]
35 | COc1ccc(OC2CCN(c3nnc(C(=O)NCc4ccccc4)cc3C)CC2)cn1 [Example 193, N-benzyl-6-{4-[(6-methoxypyridin-3-yl)oxy]piperidin-1-yl}-5-methylpyridazine-3-carboxamide]
51 | Cc1cc(C(=O)NCc2ccccc2)nnc1N1CCC(Oc2cccc(C#N)c2)CC1 [Example 194, N-benzyl-6-[4-(3-cyanophenoxy)piperidin-1-yl]-5-methylpyridazine-3-carboxamide]
57 | COc1ccc(OC2CCN(c3nnc(C(=O)NCc4ccccc4Cl)cc3C)CC2)cn1 [Example 195, N-(2-chlorobenzyl)-6-{4-[(6-methoxypyridin-3-yl)oxy]piperidin-1-yl}-5-methylpyridazine-3-carboxamide]
74 | COc1ccc(OC2CCN(c3nnc(C(=O)NCCc4ccccc4)cc3C)CC2)cn1 [Example 196, 6-{4-[(6-methoxypyridin-3-yl)oxy]piperidin-1-yl}-5-methyl-N-(2-phenylethyl)pyridazine-3-carboxamide]
91 | COc1ccc(OC2CCN(c3nnc(C(=O)NCCc4ccccc4Cl)cc3C)CC2)cn1 [Example 197, N-[2-(2-chlorophenyl)ethyl]-6-{4-[(6-methoxypyridin-3-yl)oxy]piperidin-1-yl}-5-methylpyridazine-3-carboxamide]

The remaining lines, values behind:

Compound | EC50 [nM]
COc1ccc(OC2CCN(c3nnc(C(=O)NC4CCc5cc(F)ccc5C4)cc3C)CC2)cn1 (stereo not shown) [Example 168, N-(6-fluoro-1,2,3,4-tetrahydronaphthalen-2-yl)-6-{4-[(6-methoxypyridin-3-yl)oxy]piperidin-1-yl}-5-methylpyridazine-3-carboxamide] | 446
COc1ccc(OC2CCN(c3nnc(C(=O)NC4CCCC4)cc3C)CC2)cn1 [Example 169, N-cyclopentyl-6-{4-[(6-methoxypyridin-3-yl)oxy]piperidin-1-yl}-5-methylpyridazine-3-carboxamide] | 459
COc1ccc(OC2CCN(c3nnc(C(=O)NC4CCc5cccnc54)cc3C)CC2)cn1 (stereo not shown) [Example 170, N-(6,7-dihdyro-5H-cyclopenta[b]pyridin-7-yl)-6-{4-[(6-methoxypyridin-3-yl)oxy]piperidin-1-yl}-5-methylpyridazine-3-carboxamide] | 465
COc1ccc(OC2CCN(c3nnc(C(=O)NCc4ccc(C#N)cc4)cc3C)CC2)cn1 [Example 171, N-(4-cyanobenzyl)-6-{4-[(6-methoxypyridin-3-yl)oxy]piperidin-1-yl}-5-methylpyridazine-3-carboxamide] | 471
Cc1cc(C(=O)NC2CCc3cnccc3C2)nnc1N1CCC(Oc2cccc(C#N)c2)CC1 (stereo not shown) [Example 172, 6-[4-(3-cyanophenoxy)piperidin-1-yl]-5-methyl-N-(5,6,7,8-tetrahydroisoquinolin-6-yl)pyridazine-3-carboxamide] | 508
COc1ccc(OC2CCN(c3nnc(C(=O)N[C@H]4CCc5ccccc54)cc3C)CC2)cn1 [Example 173, N-[(1S)-2,3-dihydro-1H-inden-1-yl]-6-{4-[(6-methoxypyridin-3-yl)oxy]piperidin-1-yl}-5-methylpyridazine-3-carboxamide] | 552
COc1ccc(OC2CCN(c3nnc(C(=O)NCc4ccc(S(C)(=O)=O)cc4)cc3C)CC2)cn1 [Example 174, 6-{4-[(6-methoxypyridin-3-yl)oxy]piperidin-1-yl}-5-methyl-N-[4-(methylsulfonyl)benzyl]pyridazine-3-carboxamide] | 563
COc1ccc(OC2CCN(c3nnc(C(=O)NCc4ccc5c(c4)CNC5=O)cc3C)CC2)cn1 [Example 175, 6-{4-[(6-methoxypyridin-3-yl)oxy]piperidin-1-yl}-5-methyl-N-[(1-oxo-2,3-dihydro-1H-isoindol-5-yl)methyl]pyridazine-3-carboxamide] | 573
COc1ccc(OC2CCN(c3nnc(C(=O)NCc4ccc5c(c4)CCO5)cc3C)CC2)cn1 [Example 176, N-(2,3-dihydro-1-benzofuran-5-ylmethyl)-6-{4-[(6-methoxypyridin-3-yl)oxy]piperidin-1-yl}-5-methylpyridazine-3-carboxamide] | 629
COc1ccc(OC2CCN(c3nnc(C(=O)NC4Cc5ccccc5C4)cc3C)CC2)cn1 [Example 177, N-(2,3-dihydro-1H-inden-2-yl)-6-{4-[(6-methoxypyridin-3-yl)oxy]piperidin-1-yl}-5-methylpyridazine-3-carboxamide] | 693
COc1ccc(OC2CCN(c3nnc(C(=O)NCc4ccccc4C#N)cc3C)CC2)cn1 [Example 178, N-(2-cyanobenzyl)-6-{4-[(6-methoxypyridin-3-yl)oxy]piperidin-1-yl}-5-methylpyridazine-3-carboxamide] | 724
COc1ccc(OC2CCN(c3nnc(C(=O)N[C@@H]4CCc5ccccc54)cc3C)CC2)cn1 [Example 179, N-[(1R)-2,3-dihydro-1H-inden-1-yl]-6-{4-[(6-methoxypyridin-3-yl)oxy]piperidin-1-yl}-5-methylpyridazine-3-carboxamide] | 793
COc1ccc(OC2CCN(c3nnc(C(=O)NC4CCNC4=O)cc3C)CC2)cn1 (stereo not shown) [Example 180, 6-{4-[(6-methoxypyridin-3-yl)oxy]piperidin-1-yl}-5-methyl-N-(2-oxopyrrolidin-3-yl)pyridazine-3-carboxamide] | 808
COc1ccc(OC2CCN(c3nnc(C(=O)NCc4cc(F)c(OC)c(F)c4)cc3C)CC2)cn1 [Example 181, N-(3,5-difluoro-4-methoxybenzyl)-6-{4-[(6-methoxypyridin-3-yl)oxy]piperidin-1-yl}-5-methylpyridazine-3-carboxamide] | 871
